Counter-ions that a name gives are not always drawn.
biological target: T1, SCD (SCD-containing rat microsomes) (Rattus norvegicus, UniProt P07308); assay: in vitro assay for SCD activity based on production of [3H]H2O from [9,10-3H] stearoyl Coenzyme A; type: biochemical; details: SCD-containing rat microsomes (2 μg protein), substrate 1 μM, 6 min incubation, 5 min preincubation with compound; read-out: average pIC50 value, in vitro assay for SCD activity (converted)
T1 construct: SCD-containing rat microsomes (2 μg protein); from tissue
T1 sequence (P07308 1-358): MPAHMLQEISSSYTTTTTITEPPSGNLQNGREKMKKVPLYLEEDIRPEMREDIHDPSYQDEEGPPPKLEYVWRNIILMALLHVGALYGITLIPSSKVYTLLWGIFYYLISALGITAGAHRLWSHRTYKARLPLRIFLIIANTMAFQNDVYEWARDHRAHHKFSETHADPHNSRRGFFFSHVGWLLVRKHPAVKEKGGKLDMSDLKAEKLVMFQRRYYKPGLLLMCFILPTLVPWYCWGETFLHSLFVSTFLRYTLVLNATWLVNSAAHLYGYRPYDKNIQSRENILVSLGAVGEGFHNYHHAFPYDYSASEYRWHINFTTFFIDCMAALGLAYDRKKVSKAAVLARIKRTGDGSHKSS
Experimental: The compounds of the present invention may be analysed in vitro for SCD activity using an assay based on the production of [^3H]H2O, which is released during the enzyme-catalyzed generation of the monounsaturated fatty acyl CoA product. The assay is performed in a 96-well filtration plates. The titrated substrate used in the assay is the [9,10-^3H] stearoyl Coenzyme A. After incubation for 6 minutes of SCD-containing rat microsomes (2 μg protein) and substrate (1 μM), the labelled fatty acid acyl-CoA species and microsomes are absorbed with charcoal and separated from [^3H]H2O by centrifugation. The formation of [^3H]H2O is used as a measure of SCD activity. Compounds at concentrations starting at 10 μM to 0.1 nM or vehicle (DMSO) are preincubated for 5 minutes with the microsomes before addition of the substrate. The concentration-responses are fitted with sigmoidal curves to obtain IC50 values.

| SMILES | IC50 [µM] |
| --- | --- |
| CC(C)COc1ccc(Cl)cc1Cn1nc(C(=O)Nc2ccc3c(c2)CCNC3)cc1C1CC1 [1-({5-chloro-2-[(2-methylpropyl)oxy]phenyl}methyl)-5-cyclopropyl-N-(1,2,3,4-tetrahydro-6-isoquinolinyl)-1H-pyrazole-3-carboxamide hydrochloride] | > 10 |
| CCc1cc(NC(=O)c2ccc3c(c2)CCNC3)nn1Cc1cc(Cl)ccc1OCC(C)C [Example 1, N-[1-({5-chloro-2-[(2-methylpropyl)oxy]phenyl}methyl)-5-ethyl-1H-pyrazol-3-yl]-1,2,3,4-tetrahydro-6-isoquinolinecarboxamide hydrochloride] | < 3.16 |
| CCCc1cc(C(=O)Nc2ccc3c(c2)CCNC3)nn1Cc1cc(Cl)ccc1OCC(C)C [1-({5-chloro-2-[(2-methylpropyl)oxy]phenyl}methyl)-5-propyl-N-(1,2,3,4-tetrahydro-6-isoquinolinyl)-1H-pyrazole-3-carboxamide hydrochloride] | 3.16 to 10 |
| CC(C)COc1ccc(Cl)cc1Cn1nc(NC(=O)c2ccc3c(c2)CCNC3)cc1C1CC1 [Example 2, N-[1-({5-chloro-2-[(2-methylpropyl)oxy]phenyl}methyl)-5-cyclopropyl-1H-pyrazol-3-yl]-1,2,3,4-tetrahydro-6-isoquinolinecarboxamide hydrochloride] | < 3.16 |

From patent US20100041590A1, “Compounds” (priority 2006, published 2010)
